The source of these data is US6822100B2 (Bristol-Myers Squibb Company, priority 2001, dated 2004).

Like-named read-outs stand apart in the source and are kept apart here. A value given as a limit tells only on which side of the number the result lay.

Experiment [1] deals with T1, human serotonin transporters (Homo sapiens, UniProt P31645).
T1 construct: expressed in transfected cells; host or cells: HEK-293 (HEK-hSERT), membrane homogenates
As to the kind of experiment: Serotonin Transporter Binding Assay. Particulars: HEK-hSERT cell membranes, 1 nM [3H]-citalopram, Cheng and Prusoff. A digest of the protocol:
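Displacement of 1 nM [^3H]-citalopram (1 hr, 25° C, Tris pH 7.4 with NaCl/KCl) from membranes of HEK-293 cells stably expressing human SERT, with bound ligand read after filtration. 10 μM fluoxetine defined non-specific binding. Ki values were derived via Cheng–Prusoff from IC50 displacement-curve midpoints.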

Experiment [2] has as its target T2, recombinant human dopamine D2L receptors (Homo sapiens, UniProt P14416).
T2 construct: expressed in transfected cells; host or cells: HEK-293 (HEK-D2L), membrane homogenates
Put plainly: Dopamine Binding Assay. Particulars: HEK-D2L cell membranes, 150 pM [3H]-spiperone, Cheng and Prusoff. A digest of the protocol:
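Competition binding on HEK-293 membranes stably expressing human D2L (~5 μg protein) with 150 pM [3H]-spiperone, 1.5 h at 22 °C in 50 mM Tris pH 7.4, 1 mM EDTA, 6 mM MgCl2. Filtration read-out; non-specific binding defined with 2 μM (+)butaclamol, Ki by Cheng-Prusoff.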

T2 sequence (P14416 whole entry): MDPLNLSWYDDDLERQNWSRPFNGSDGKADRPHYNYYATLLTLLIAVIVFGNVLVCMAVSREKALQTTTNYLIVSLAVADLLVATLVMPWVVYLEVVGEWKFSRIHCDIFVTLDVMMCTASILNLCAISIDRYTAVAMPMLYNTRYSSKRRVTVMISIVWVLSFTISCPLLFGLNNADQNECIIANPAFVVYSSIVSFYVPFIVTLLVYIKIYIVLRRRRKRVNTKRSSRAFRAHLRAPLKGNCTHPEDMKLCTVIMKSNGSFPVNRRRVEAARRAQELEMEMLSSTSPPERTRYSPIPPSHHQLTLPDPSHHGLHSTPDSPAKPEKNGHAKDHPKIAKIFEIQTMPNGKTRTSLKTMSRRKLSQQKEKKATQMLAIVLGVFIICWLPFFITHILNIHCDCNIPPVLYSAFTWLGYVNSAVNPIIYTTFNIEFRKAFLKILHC
T1 sequence (P31645 whole entry): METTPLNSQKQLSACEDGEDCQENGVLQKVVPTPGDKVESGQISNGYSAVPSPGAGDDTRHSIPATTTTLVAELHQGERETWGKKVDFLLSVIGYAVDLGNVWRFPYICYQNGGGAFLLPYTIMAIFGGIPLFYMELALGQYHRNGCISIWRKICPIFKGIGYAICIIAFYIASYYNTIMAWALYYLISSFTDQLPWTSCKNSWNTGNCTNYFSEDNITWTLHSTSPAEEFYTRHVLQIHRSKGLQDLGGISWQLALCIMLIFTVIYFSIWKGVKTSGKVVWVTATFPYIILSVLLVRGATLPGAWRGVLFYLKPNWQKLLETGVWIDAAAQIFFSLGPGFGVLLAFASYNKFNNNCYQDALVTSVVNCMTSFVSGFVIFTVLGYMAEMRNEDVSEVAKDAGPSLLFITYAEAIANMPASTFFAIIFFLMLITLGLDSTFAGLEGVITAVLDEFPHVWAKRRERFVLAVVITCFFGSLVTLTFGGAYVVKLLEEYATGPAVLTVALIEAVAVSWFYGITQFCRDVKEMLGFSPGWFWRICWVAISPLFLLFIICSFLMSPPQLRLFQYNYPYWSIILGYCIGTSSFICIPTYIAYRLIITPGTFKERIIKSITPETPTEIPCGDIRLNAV

For orientation: Ki means the equilibrium dissociation constant of an inhibitor or competing ligand from its target. Regarding `N#Cc1ccc2[nH]cc([C@@H]3C[C@H]3CNCCc3c[nH]cn3)c2c1` (relative stereo) [Example 23, trans-2-[5-Cyanoindol-3-yl]-1-[N-2-(4-imidazolyl)ethylaminomethyl]-cyclopropane], the Ki in experiment [1] (read-out: SERT Ki) and in experiment [2] was 10 to 100 nM throughout.
Consider `Fc1ccc2[nH]cc([C@@H]3C[C@H]3CNCc3ccccc3)c2c1` (relative stereo) [Example 49, trans-1-(N-Benzlyaminomethyl)-2-[5-fluoroindol-3-yl]-cyclopropane], for which the Ki in experiment [1] (read-out: SERT Ki) is 10 to 100 nM; in experiment [2], 100 to 1000 nM.
Take `CCOC(=O)NCCN(C)C[C@@H]1C[C@H]1c1c[nH]c2ccc(C#N)cc12` (relative stereo) [Example 87, trans-2-[5-Cyanoindol-3-yl]-1-[N,N-methyl-2-amino(ethylcarbamoyl)ethylaminomethyl]-cyclopropane]: the Ki fell in the range of 10 to 100 nM in experiment [1] (read-out: SERT Ki) and 100 to 1000 nM in experiment [2].
On to `CCCOC(=O)NCCN(CC)C[C@@H]1C[C@H]1c1c[nH]c2ccc(F)cc12` (relative stereo) [Example 110, trans-1-[N,N-Ethyl-2-amino(propylcarbamoyl)ethylaminomethyl]-2-[5-fluoroindol-3-yl]-cyclopropane], for which the Ki in experiment [1] (read-out: SERT Ki) was in the range of 1 to 10 nM; in experiment [2], 100 to 1000 nM.
The corresponding values for `COc1ccc(CNC[C@@H]2C[C@H]2c2c[nH]c3ccc(C#N)cc23)cc1` (relative stereo) [Example 10, trans-2-[5-Cyanoindol-3-yl]-1-[N-(4-methoxybenzyl)amnomethyl]-cyclopropane] are 1 to 10 nM and 100 to 1000 nM.
Taken in the same sequence, the figures for `CCNCC1CC1c1c[nH]c2ccc(C#N)cc12` (centres unmarked) [Example 135] were 1 to 10 nM and 10 to 100 nM.
Taken in the same sequence, the figures for `N#Cc1ccc2[nH]cc(C3CC3CNCc3ccncc3)c2c1` (stereo not drawn) [Example 16, trans-2-[5-Cyanoindol-3-yl]-1-[N-(4-pyridyl)methylaminomethyl]-cyclopropane] were 10 to 100 nM and 100 to 1000 nM.
Turning to `Fc1ccc(CNCC2CC2c2c[nH]c3ccc(F)cc23)cc1` (stereo not drawn) [Example 55, trans-1-[N-(4-Fluorobenzyl)aminomethyl]2-[5-fluoroindol-3-yl]-cyclopropane], the results for the Ki in experiment [1] (read-out: SERT Ki) and in experiment [2] were 10 to 100 nM and 100 to 1000 nM, respectively.
Taken in the same sequence, the figures for `CCN(CCCNC(=O)OC(C)C)C[C@@H]1C[C@H]1c1c[nH]c2ccc(F)cc12` (relative stereo) [Example 115, trans-1-[N,N-Ethyl-2-amino(isopropylcarbamoyl)propylaminomethyl]-2-[5-fluoroindol-3-yl]-cyclopropane] were 10 to 100 nM and 100 to 1000 nM.
The corresponding values for `COC(=O)NCCCN(C)C[C@@H]1C[C@H]1c1c[nH]c2ccc(F)cc12` (relative stereo) [Example 104, trans-2-[5-Fluoroindol-3-yl]-1-[N,N-methyl-2-amino(methylcarbamoyl)propylaminomethyl]-cyclopropane] are 10 to 100 nM and 100 to 1000 nM.
As for `N#Cc1ccc2[nH]cc(C3CC3CN3CCNCC3)c2c1` (stereo not drawn) [Example 35, trans-2-[5-Cyanoindol-3-yl]-1-(piperazin-1-yl-methyl)-cyclopropane], the Ki was 1 to 10 nM in experiment [1] (SERT Ki (nM)) and greater than 1000 nM in experiment [2].
As for `CCCNCC1CC1c1c[nH]c2ccc(F)cc12` (centres unmarked) [Example 142], the Ki lay in the range of 10 to 100 nM in experiment [1] (read-out: SERT Ki) and 100 to 1000 nM in experiment [2].
As for `CC1CCN(CC2CC2c2c[nH]c3ccc(F)cc23)CC1` (centres unmarked) [Example 140], the Ki in experiment [1] (read-out: SERT Ki) and in experiment [2] was 100 to 1000 nM each time.
Regarding `CNC(C)C1CC1c1c[nH]c2ccc(C#N)cc12` (racemic) [Example 125, trans-3-[2-(1-Methylamino-ethyl)-cyclopropyl]-1H-indole-5-carbonitrile], the Ki in experiment [1] (read-out: SERT Ki) lay in the range of 1 to 10 nM; in experiment [2] it was 100 to 1000 nM.
As for `COc1cccc(CNC[C@@H]2C[C@H]2c2c[nH]c3ccc(C#N)cc23)c1` (relative stereo) [Example 9, trans-2-[5-Cyanoindol-3-yl]-1-[N-(3-methoxybenzyl)aminomethyl]-cyclopropane], the Ki in experiment [1] (read-out: SERT Ki) lay in the range of 1 to 10 nM; in experiment [2], 100 to 1000 nM.
The corresponding values for `CCNCC1CC1c1csc2ccccc12` (centres unmarked) [Example 169, (2-Benzo[b]thiophen-3-yl-cyclopropylmethyl)-ethyl-amine] are 10 to 100 nM and 100 to 1000 nM.
The corresponding values for `CC(C)CNCC1CC1c1c[nH]c2ccc(C#N)cc12` (stereo not drawn) [Example 31, trans-2-[5-Cyanoindol-3-yl]-1-[N-isobutylaminomethyl]-cyclopropane] are 10 to 100 nM and 10 to 100 nM.
As to `Fc1ccc2[nH]cc(C3CC3CNCCc3cccs3)c2c1` (stereo not drawn) [Example 67, trans-2-[5-Fluoroindol-3-yl]-1-[N-2-(2-thiopheneyl)ethylaminomethyl]-cyclopropane], the Ki in experiment [1] (read-out: SERT Ki) and in experiment [2] was 10 to 100 nM in each case.
For `CN(Cc1ccccc1)CC1CC1c1c[nH]c2ccc(F)cc12` (stereo not drawn) [Example 186, cis-1-(N-benzyl-N-methylaminomethyl)-2-[5-fluoroindol-3-yl]-cyclopropane], the Ki in experiment [1] (read-out: SERT Ki) is 1 to 10 nM; in experiment [2] it was greater than 1000 nM.
In the case of `CCOC(=O)NCCCN(CC)C[C@@H]1C[C@H]1c1c[nH]c2ccc(C#N)cc12` (relative stereo) [Example 98, trans-2-[5-Cyanoindol-3-yl]-1-[N,N-ethyl-2-amino(ethylcarbamoyl)propylaminomethyl]-cyclopropane], the figures for the Ki in experiment [1] (read-out: SERT Ki) and in experiment [2] were 1 to 10 nM and 100 to 1000 nM, respectively.
The corresponding values for `N#Cc1ccc2[nH]cc(C3CC3CNCCCc3ccccc3)c2c1` (stereo not drawn) [Example 21, trans-2-[5-Cyanoindol-3-yl]-1-[N-3-phenylpropylaminomethyl]-cyclopropane] are 1 to 10 nM and 10 to 100 nM.
Taken in the same sequence, the figures for `N#Cc1ccc2[nH]cc([C@@H]3C[C@H]3CNCc3ccccc3)c2c1` (relative stereo) [Example 7, trans-1-(N-Benzlyaminomethyl)-2-[5-cyanoindol-3-yl]-cyclopropane] were 1 to 10 nM and 100 to 1000 nM.
The corresponding values for `CN(CCCC1CC1c1c[nH]c2ccc(C#N)cc12)Cc1ccccc1` (stereo not drawn) [Example 180, Trans-2-[5-cyanoindol-3-yl]-1-(3-(N-benzyl-N-methylamino)propyl)cyclopropane] are 10 to 100 nM and 100 to 1000 nM.
Consider `Fc1ccc2[nH]cc(C3CC3CNCc3cccs3)c2c1` (stereo not drawn) [Example 66, trans-2-[5-Fluoroindol-3-yl]-1-[N-2-thiopheneylmethylaminomethyl]-cyclopropane], for which the inhibition constant Ki in experiment [1] (read-out: SERT Ki) was 10 to 100 nM; in experiment [2] it was 100 to 1000 nM.
The corresponding values for `CNCCCC1CC1c1c[nH]c2ccc(C#N)cc12` (stereo not drawn) [Example 175, Trans-2-[5-cyanoindol-3-yl]-1-(3-(N-methylamino)propyl)cyclopropane] are 1 to 10 nM and 100 to 1000 nM.
In the case of `CCOC(=O)NCCN(C)CC1CC1c1c[nH]c2ccc(C#N)cc12` (centres unmarked) [Example 134], the Ki in experiment [1] (read-out: SERT Ki) was 1 to 10 nM; in experiment [2], greater than 1000 nM.
Taken in the same sequence, the figures for `CN(Cc1ccccc1)CC1CC1c1c[nH]c2ccc(F)cc12` (centres unmarked) [Example 131] were 1 to 10 nM and 100 to 1000 nM.
Taken in the same sequence, the figures for `Fc1ccc2[nH]cc(C3CC3CNCC3CCCCC3)c2c1` (stereo not drawn) [Example 71, trans-1-[N-Cyclohexylmethylaminomethyl]-2-[5-fluoroindol-3-yl]-cyclopropane] were 10 to 100 nM and 10 to 100 nM.
Taken in the same sequence, the figures for `CCN(CCNC(=O)OC)C[C@@H]1C[C@H]1c1c[nH]c2ccc(C#N)cc12` (relative stereo) [Example 93, trans-2-[5-Cyanoindol-3-yl]-1-[N,N-ethyl-2-amino(methylcarbamoyl)ethylaminomethyl]-cyclopropane] were 1 to 10 nM and greater than 1000 nM.
On to `Fc1ccc2[nH]cc(C3CC3CNCCCc3ccccc3)c2c1` (stereo not drawn) [Example 62, trans-2-[5-Fluoroindol-3-yl]-1-[N-3-phenylpropylaminomethyl]-cyclopropane], for which the Ki in experiment [1] (read-out: SERT Ki) was 1 to 10 nM; in experiment [2], 10 to 100 nM.
The corresponding values for `CNC[C@H]1C[C@@H]1c1c[nH]c2ccc(C#N)cc12` [Example 120, (1S,2S)-trans-2-[5-Cyanoindol-3-yl]-1-(N-methylaminomethyl)cyclopropane] are 1 to 10 nM and 100 to 1000 nM.
Consider `CN(C)CC1CC1c1c[nH]c2ccc(F)cc12` (single isomer, unassigned) [Example 130a, Cis-2-[5-Fluoroindol-3-yl]-1-(N,N-dimethylaminomethyl)cyclopropane], for which the Ki in experiment [1] (SERT Ki (nM)) was 100 to 1000 nM; in experiment [2] it was greater than 1000 nM.
Turning to `CN(C)C[C@@H]1C[C@H]1Cc1c[nH]c2ccc(F)cc12` (single isomer, unassigned) [Example 149, (−)-[2-(5-Fluoro-1H-indol-3-ylmethyl)-cyclopropylmethyl]-dimethylamine], the Ki lay in the range of 1 to 10 nM in experiment [1] (read-out: SERT Ki) and 100 to 1000 nM in experiment [2].
The corresponding values for `N#Cc1ccc2[nH]cc([C@@H]3C[C@H]3CNC3CCCCC3)c2c1` (relative stereo) [Example 29, trans-2-[5-Cyanoindol-3-yl]-1-[N-cyclohexylaminomethyl]-cyclopropane] are 10 to 100 nM and 10 to 100 nM.
